The values below are quoted from earlier work in US20110135634A1, “METHODS OF INHIBITING INFECTION BY DIVERSE SUBTYPES OF DRUG-RESISTANT HIV-1” (priority 2007, published 2011).

For series [1] the following is noted: single administration of TAK-652 solution, healthy male volunteers; cited from earlier work.
The conditions of series [2]: in vivo; cited from earlier work.

Turning to `CCCCOCCOc1ccc(-c2ccc3c(c2)/C=C(/C(=O)Nc2ccc([S@@+]([O-])Cc4cncn4CCC)cc2)CCCN3CC(C)C)cc1.CS(=O)(=O)O` [TAK-652], the safety and tolerability result in series [1] is “safe and well tolerated”. Further, the oral bioavailability entry in series [2] is given as “orally bioavailable”.
